Test results from patent publication US7964598B2 (The J. David Gladstone Institutes, priority 1995, dated 2011).
Several values for one entry are separate records, joined by “and”; a condition that tells them apart may be missing. Equal values may be shown once.

Experiments:
apoE3 [1] = biological target: T1, apoE3 (Homo sapiens, UniProt P02649); test: Emulsion binding assay, apoE3
T1 construct: made in house
Method: (§1) Preparation of emulsion particles. Triolein (160 mg) and L-alpha-Phosphatidylcholine (40 mg) are combined and dried under nitrogen. After the addition of 8 mls of buffer (10 mM Tris, 100 mM KCl, 1 mM EDTA, pH 8.0), the mixture is sonicated in a water bath to obtain a heterogeneous mix of emulsion particles. The particles are harvested by ultracentrifugation (TLA 100.2 rotor, 30,000 rpm for 30 minutes) and the subsequent lipid cake is removed by tube slicing and resuspended in 100 μt 20 mM Phosphate Buffer (PB). Triolein and phospholipid content are measured and total emulsion particle concentration is determined.
(§2) Radiolabelling Freshly denatured and renatured Apolipoprotein E3 and E4 are radiolabelled using Bolton-Hunter Reagent [^125I] (ICN). Specific Activity is determined using Lowry method and Gamma 8000 counter.
Binding Affinity Assay. […] In glass tubes, 25 μg of protein (with iodinated tracer) was reduced with 1% β-mercaptoethanol. Two hundred and fifty μg of emulsion particles and 2.5 μl of compound (10 mM stock) were added and the final mixture was brought up to 250 μl with 20 mM phosphate buffer (PB). The reaction mixture was then incubated in a 37° C. water bath for 2 hours before being transferred to 1.5 ml ultracentrifuge tubes. Finally, 50 μl of 60% sucrose was mixed with the sample and 400 μl 20 mM PB was carefully layered on top. Using a TLA 100.2 rotor, the tube was spun at 30,000 rpm for 30 minutes and subsequently cut to separate the floating emulsion particle layer from the free protein at the bottom of the tube. These fractions were then combined with the respective half of the actual tube and counted using a Gamma-8000. […] Protein-only assays yielded 94.5-96.6% of protein accumulated in the bottom portion of the tube. In emulsion particle-only assays, 94% of emulsion particles accumulated in the top portion of the tube.
Preparation of Emulsion Particles and VLDL Binding Affinity Assay. VLDL-like emulsion particles were prepared using triolein (160 mg) and L-alpha-phosphatidylcholine (40 mg), as described. Dong and Weisgraber (1996) supra; and Dong et al. (1994) J. Biol. Chem. 269:22358-22365.

apoE3 [2] = test: Aβ production assay, B103-APP cells incubated with apoE3; assay type: cell-based, rat; settings: FIG. 22
Method: (§3) Aβ production assay. Stable neuroblastoma B103 cell lines transfected with a wildtype hAPP cDNA construct (B 103-APP) were selected by growing them in Dulbecco's modified Eagle's medium (DMEM) containing 10% fetal calf serum (FBS) and 400 μg/ml G418. A cell line expressing APP at similar levels in mouse brains has been identified by RNase protection assay (RPA) and was used in the studies described below. To determine Aβ production, B103-APP cells were incubated with serum-free minimal essential medium (MEM) containing N2 supplements with or without apoE isoforms for 24 h at 37° C. After incubation, 50 μl of medium was collected and assayed for Aβ levels with an ELISA method. The cells were lysed, and cellular proteins were determined by the Lowry method. AP production was normalized to cellular protein.
(§4) Cell Culture. Rat neuroblastoma B103 cells stably expressing human wildtype APP (hAPP695wt) (Xu et al. ((1999) Proc. Natl. Acad. Sci. USA 96:7547-7552; Esposito, et al. (2004) J. Neurochem. 91:1260-1274) were generated in Dr. Lennart Mucke's laboratory at the Gladstone Institute of Neurological Disease and maintained in Dulbecco's modified Eagle's medium (DMEM) (GIBCO, Grand Island, N.Y.) containing 400 μg/ml G418, 10% fetal bovine serum, and 5% horse serum at 37° C. Twenty-four hours after plating into 48-well plates (1×10^5 cells per well), cells were washed twice with serum-free DMEM and cultured for another 24 h in DMEM containing 1% N-2 supplement (GIBCO) to induce differentiation. The cells were treated with either β-VLDL (25 μg/ml cholesterol), recombinant human apoE isoform-enriched β-VLDL (7.5 μg/ml apoE and 25 μg/ml cholesterol), or recombinant human apoE (7.5 μg/ml apoE) in fresh DMEM containing 1% N-2 supplement for an additional 24 h. In some experiments, RAP (25 nM or 1 μM) was added to the cells 1 h before apoE treatment.
(§5) Aβ Assay. Aβ secreted into the medium was detected with a sandwich enzyme-linked immunosorbent assay (ELISA), using mAb 266 as a capturing antibody and 3D6 as a detecting antibody, as described. Johnson-Wood et al. ((1997) Proc. Natl. Acad. Sci. USA 94:1550-1555). Aβ was quantified from a standard curve (Aβ42; Bachem, Torrance, Calif.) and normalized by total cellular protein.

Water solubility = assay type: physicochemical
B103-APP cells = test: APP processing and Aβ production, B103-APP cells; assay type: cell-based, rat; settings: lipid-free apoE, 7.5 μg/ml, 24 h, compared to medium alone
Method: as §3, §4
In some experiments, cells were treated with lovastatin, as described but with a minor modification. Fassbender et al. (2001) Proc. Natl. Acad. Sci. USA 98:5856-5861. Briefly, cells were maintained in differentiation medium containing 4 μM lovastatin and 0.25 mM mevalonate for 24 h. After treatment for 5 min with 5 mM methyl-β-cyclodextrin, which depletes cell membrane cholesterol (Bodovitz and Klein (1996) J. Biol. Chem. 271:4436-4440; Kojro et al. (2001) Proc. Natl. Acad. Sci. USA 98:5815-5820), the cells were incubated in fresh differentiation medium containing lovastatin and mevalonate for 24 h. The conditioned medium was collected, and cellular cholesterol extracted with chloroform/methanol (Huang et al. (1994) Proc. Natl. Acad. Sci. USA 91:1834-1838) and quantitated with a kit from Abbott Laboratories (Abbott Park, Ill.).
Detection of sAPPα. Media conditioned for 24 hours were normalized by protein content and subjected to SDS/PAGE. Proteins were then transferred onto nitrocellulose membranes. The sAPPα was detected by mAb 6E10 and visualized with an enhanced chemiluminescence system (Pierce, Rockford, Ill.).
as §5

emulsion particles = test: Control emulsion binding assays without compounds; settings: n = 9; no compound
Method: as §1, §2
Binding Affinity Assay. […] In glass tubes, 25 μg of protein (with iodinated tracer) was reduced with 1% β-mercaptoethanol. Two hundred and fifty μg of emulsion particles and 2.5 μl of compound (10 mM stock) were added and the final mixture was brought up to 250 μl with 20 mM phosphate buffer (PB). The reaction mixture was then incubated in a 37° C. water bath for 2 hours before being transferred to 1.5 ml ultracentrifuge tubes. Finally, 50 μl of 60% sucrose was mixed with the sample and 400 μl 20 mM PB was carefully layered on top. Using a TLA 100.2 rotor, the tube was spun at 30,000 rpm for 30 minutes and subsequently cut to separate the floating emulsion particle layer from the free protein at the bottom of the tube. These fractions were then combined with the respective half of the actual tube and counted using a Gamma-8000.

T1 sequence (P02649 19-317): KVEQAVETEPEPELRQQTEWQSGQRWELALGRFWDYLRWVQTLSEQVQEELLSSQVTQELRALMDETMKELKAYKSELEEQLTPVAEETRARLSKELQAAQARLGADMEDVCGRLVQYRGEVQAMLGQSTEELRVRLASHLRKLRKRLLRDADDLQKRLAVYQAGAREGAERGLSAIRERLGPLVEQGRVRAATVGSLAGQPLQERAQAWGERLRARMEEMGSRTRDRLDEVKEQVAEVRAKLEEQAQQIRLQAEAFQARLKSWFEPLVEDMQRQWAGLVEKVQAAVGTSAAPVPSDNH

| binding of apoE3 to the emulsion particles (apoE3 [1]) | E3 + compound, % bound (apoE3 [1]; follow-up assay) [%] | E3 + compound, % free (apoE3 [1]; follow-up assay) [%] | water solubility (Water solubility) | Mean % bound (emulsion particles) [%] | Mean % free (emulsion particles) [%] | Median % bound (emulsion particles) [%] | Median % free (emulsion particles) [%] | Range % bound (emulsion particles) | Range % free (emulsion particles) | Compound | effect on apoE3 (Aβ production) (apoE3 [2]) | increase of Aβ production (B103-APP cells) |
| --- | --- | --- | --- | --- | --- | --- | --- | --- | --- | --- | --- | --- |
| no significant effect | 30 | 70 | water-soluble | – | – | – | – | – | – | O=S(=O)([O-])c1ccc2c(c1)c(Nc1ccc(S(=O)(=O)O)cc1)cc1c2nc2ccccc2[n+]1-c1ccccc1 [GIND-25, azocarmine-G] | no effect | – |
| – | – | – | – | 29.8 | 70.2 | 33 | 67 | 20-39% | 61-81% | apoE3: human apolipoprotein E3 isoform, also iodinated | – | 30% |
| – | – | – | – | 59.4 | 40.6 | 60 | 40 | – | 30-50% | apoE4: human apolipoprotein E4 isoform, also iodinated | – | ~70% and ~60% |
